Data on ten substances can be found in patent publication US20250154525A1, “PLANT VIRUS MOVEMENT PROTEINS AND METHODS OF USING SAME” (Molecular Transfer, Inc., priority 2016, published 2025).

For one test, the system named is HuVec Cells. Description: GFP plasmid transfection with DOTMA/DOPE plus surface ligand peptide, fluorescent plate reader (Example 1). In kind it is cell-based. The note with it: DOTMA/DOPE + peptide linked to R12 or K16; EF1Alpha eGFP plasmid; 42 hours. The procedure: (§1) Cells were plated to so that on the day of transfection the cells were 70% confluent in 96 well tissue culture plates. A DOMTA/DOPE Lipid solution (1:1 molar ratio) at 2 mg/mL in water were mixed with an equal volume cell surface ligand containing adhesion peptide, the plant virus movement protein, or peptide derived therefrom, that had the nucleic acid binding moiety RRRRRRRRRRRR (SEQ ID NO:109) or KKKKKKKKKKKKKKKK (SEQ ID NO: 102) covalently linked to the N-terminus, or C-terminus of each peptide during peptide synthesis. Peptides were at 2 mg/mL in water. The DOTMA/DOPE and the solution containing the cell surface ligand containing adhesion peptide, the plant virus movement protein, or peptide derived therefrom, surface ligand peptide the was diluted 1 to 1 (v/v) in water. DOMTA/DOPE/PEPTIDE solutions were added to 0.1 mL of a plasmid DNA solution (EF1Alpha eGFP plasmid) at 10 μg/mL in OptiMEM.
(§2) All solutions were at room temperature. A volume of 0.2 mL of a 10 μg/mL solution of DNA was aliquoted into each well of a non-tissue cultured treated plate. 1-12 μL of transfection reagents were added to DNA solutions respectively. The transfection reagent and DNA solution was mixed by pipetting up and down twice. Transfection complexes were formed for 10 minutes. After 10 minutes, 0.01 or 0.02 mL of the transfection complex was added to cells. HuVEC, HeLa, human adult keratinocytes, human primary adult fibroblast, and A549 cells all respectively received 0.01 mL of the transfection complex. Human skeletal muscle cells, mouse C2C12 cells, and Jurkat, cells received 0.02 mL of the transfection complex. Cells were incubated for 42 hours at 37° C. at 5% CO2. Plates were read on a fluorescent plate reader. Cells were also examined visually under a microscope to assess the extent of transfection (in terms of the percent of cells transfected) with a fluorescent microscope. Other modes of analysis, for example quantification with B-galactocidase or luciferase reports plasmids can also be used.
(§3) Surface ligand that caused increase expression of GFP over the lipid DOTMA with no surface ligand were considered to enhance transfection or had higher % cells transfected were considered to enhance transfection. Peptides that gave greater than 2-fold enhancement are noted in bold and could be further optimized by adding different transfection enhancers or could be used with different cationic lipids or polymers.
(§4) Tables 2-7, below, provide the results of the transfection enhancements with the various cell types, while Table 8 lists the peptides that were determined by visual inspection to enhance the transfection of the denoted cell lines over the lipid DOTMA.

In another test the test system is NL-1 iPS Cells. The test is described as above. It counts as cell-based. Particulars: DOTMA/DOPE + peptide linked to R12 or K16; EF1Alpha eGFP plasmid; 42 hours. Here is the method: as §1, §2, §3, §4
A further test has as its system Human Fibroblast Cells. The description is as above. In kind it is cell-based. Particulars: DOTMA/DOPE + peptide linked to R12 or K16; EF1Alpha eGFP plasmid; 42 hours. The procedure:
as §1, §2, §3, §4

For a further test, the system named is Jurkat Cells. Described as above. It counts as cell-based. Particulars: DOTMA/DOPE + peptide linked to R12 or K16; EF1Alpha eGFP plasmid; 42 hours. Here is the method: as §1, §2, §3, §4
In test [1] the test system is HeLa Cells. Described as above. In kind it is cell-based. Particulars: DOTMA/DOPE + peptide linked to R12 or K16; EF1Alpha eGFP plasmid; 42 hours. Here is the method:
as §1, §2, §3, §4

The next test deals with C2C12 Cells. The test is described as above. It counts as cell-based, mouse. The note with it: DOTMA/DOPE + peptide linked to R12 or K16; EF1Alpha eGFP plasmid; 42 hours. Here is the method: as §1, §2, §3, §4
Test [2] has as its system HeLa Cells. The experiment in a line: GFP transfection with DOTMA/SEQ ID NO: 72 (fusogenic peptide)/peptide compared with Lipofectamine 2000. It counts as cell-based. The procedure: as §1, §2
The fusogenic peptide was added to the DOMTA/peptide formulation to achieve a final concentration of 0.1 mg/mL to see if transfection reagents were further enhanced by the addition of a fusogenic peptide and could provide higher transfection efficiency into HeLa cells and expression than the commercially available Lipofectamine 2000.

The subject of the next test is some examined cell types. The experiment in a line: Summary of Example 1: transfection expression and % cells transfected over the no peptide control. It counts as cell-based. Particulars: on some examined cell types. Here is the method:
as §1, §2, §3

Setting [3] is: 0.1 μL of DOTMA/SEQ ID NO: 72/Peptide in well of a 96 well plate.
Setting [4] is: 0.2 μL of DOTMA/SEQ ID NO: 72/Peptide in well of a 96 well plate.
The mark [5] stands for this setting: 0.3 μL of DOTMA/SEQ ID NO: 72/Peptide in well of a 96 well plate.
The mark [6] stands for this setting: 0.4 μL of DOTMA/SEQ ID NO: 72/Peptide in well of a 96 well plate.

Where “and” joins values, the source holds several entries; their conditions need not be identical. Identical values can stand only once.

Consider 363 (LAGSCLARFSTM) [compound 363], for which the “Relative Fluorescence of Transfection of HuVec Cells (RF)” value in the test on HuVec Cells was determined as 1383. For the same substance, the “Relative Fluorescence of Transfection of NL-1 iPS Cells (RF)” value in the test on NL-1 iPS Cells stood at 4189. Further, the “Relative Fluorescence of Transfection of Human Fibroblast Cells (RF)” value in the test with Human Fibroblast Cells came out at 3008. For the same substance, in the test on Jurkat Cells, the “Relative Fluorescence of Transfection of Jurkat Cells (RF)” value worked out at 2432. The “Relative Fluorescence of Transfection of HeLa Cells (RF)” value in the test with HeLa Cells [1] worked out at 2590. In addition, the “Relative Fluorescence of Transfection of C2C12 Cells (RF)” value in the test on C2C12 Cells came out at 1080.
Consider 335 (TVFSVDQDNMLE) [compound 335], for which the “Relative Fluorescence of Transfection of HuVec Cells (RF)” value in the test on HuVec Cells was determined as 6350. The “Relative Fluorescence of Transfection of NL-1 iPS Cells (RF)” value with NL-1 iPS Cells is 14424. Moreover, the “Relative Fluorescence of Transfection of Human Fibroblast Cells (RF)” value in the test on Human Fibroblast Cells is reported as 8534. Further, the “Relative Fluorescence of Transfection of Jurkat Cells (RF)” value with Jurkat Cells is 4567. In addition, the “Relative Fluorescence of Transfection of HeLa Cells (RF)” value with HeLa Cells [1] stood at 26954. Also, the “Relative Fluorescence DOTMA/SEQ ID NO: 72/Peptide, HeLa Cells (RF)” value in the test with HeLa Cells [2] (setting [3]) stood at 12866; with HeLa Cells [2] (setting [4]), 12458; in the test on HeLa Cells [2] (setting [5]), 11547; with HeLa Cells [2] (setting [6]), 9753. Besides, the “Relative Fluorescence of Transfection of C2C12 Cells (RF)” value in the test with C2C12 Cells turned out to be 4689.
Turning to “234 (YEKPGSPPREVVPRPRPGV) [compound 234]”, the “Relative Fluorescence of Transfection of HuVec Cells (RF)” value with HuVec Cells came out at 13956. For the same substance, the “Relative Fluorescence of Transfection of NL-1 iPS Cells (RF)” value with NL-1 iPS Cells is on record as 14410. Besides, the “Relative Fluorescence of Transfection of Human Fibroblast Cells (RF)” value in the test with Human Fibroblast Cells amounted to 4145. In the test on Jurkat Cells, the “Relative Fluorescence of Transfection of Jurkat Cells (RF)” value was found to be 5441. For the same substance, the “Relative Fluorescence of Transfection of HeLa Cells (RF)” value with HeLa Cells [1] was 3867. In addition, the “Relative Fluorescence of Transfection of C2C12 Cells (RF)” value in the test on C2C12 Cells is 681.
Turning to 371 (GPAGKDGEAGAQG) [compound 371], the “Relative Fluorescence of Transfection of HuVec Cells (RF)” value in the test with HuVec Cells was 10669. Moreover, the “Relative Fluorescence of Transfection of NL-1 iPS Cells (RF)” value in the test on NL-1 iPS Cells is on record as 17587. Besides, in the test with Human Fibroblast Cells, the “Relative Fluorescence of Transfection of Human Fibroblast Cells (RF)” value was 4584. Moreover, in the test with Jurkat Cells, the “Relative Fluorescence of Transfection of Jurkat Cells (RF)” value is on record as 6093. Also, the “Relative Fluorescence of Transfection of HeLa Cells (RF)” value in the test on HeLa Cells [1] was 5180. Also, the “Relative Fluorescence of Transfection of C2C12 Cells (RF)” value with C2C12 Cells was 983.
For the substance 393 (LGTIPG) [compound 393], the “transfection expression and % cells transfected over the no peptide control” value in the test on some examined cell types was “increased transfection expression and the % cells transfected”.
On to 235 (KARSFNVNQLLQD) [compound 235], for which the “Relative Fluorescence of Transfection of HuVec Cells (RF)” value in the test with HuVec Cells worked out at 26940.
107 (RRRRRRRR) [compound 107]: the “Relative Fluorescence of Transfection of NL-1 iPS Cells (RF)” value with NL-1 iPS Cells stood at 1441. Besides, the “Relative Fluorescence of Transfection of HeLa Cells (RF)” value with HeLa Cells [1] came to 75.
For the substance 224 (KPDVRSYTITG) [compound 224], the “Relative Fluorescence of Transfection of HuVec Cells (RF)” value with HuVec Cells was 15945. Also, in the test on NL-1 iPS Cells, the “Relative Fluorescence of Transfection of NL-1 iPS Cells (RF)” value is reported as 25209. In addition, in the test on Human Fibroblast Cells, the “Relative Fluorescence of Transfection of Human Fibroblast Cells (RF)” value was determined as 5995. For the same substance, the “Relative Fluorescence of Transfection of Jurkat Cells (RF)” value in the test with Jurkat Cells came to 13170. Moreover, the “Relative Fluorescence of Transfection of HeLa Cells (RF)” value in the test with HeLa Cells [1] is given as 5559. Also, the “Relative Fluorescence of Transfection of C2C12 Cells (RF)” value in the test with C2C12 Cells came out at 1469.
502 (RNIAEIIKDI) [compound 502]: the “Relative Fluorescence of Transfection of C2C12 Cells (RF)” value in the test on C2C12 Cells stood at 2589.
Consider 236 (KNNQKSEPLIGRKKT) [compound 236], for which the “Relative Fluorescence of Transfection of HuVec Cells (RF)” value in the test with HuVec Cells is 14418. Further, in the test on NL-1 iPS Cells, the “Relative Fluorescence of Transfection of NL-1 iPS Cells (RF)” value was 43542 and 22256. Also, the “Relative Fluorescence of Transfection of Human Fibroblast Cells (RF)” value in the test on Human Fibroblast Cells was 3630 and 3000. Moreover, the “Relative Fluorescence of Transfection of HeLa Cells (RF)” value in the test on HeLa Cells [1] was 7202 and 5042. The “Relative Fluorescence DOTMA/SEQ ID NO: 72/Peptide, HeLa Cells (RF)” value with HeLa Cells [2] (setting [3]) is 5993; in the test on HeLa Cells [2] (setting [4]), 8846; with HeLa Cells [2] (setting [5]), 8492; in the test with HeLa Cells [2] (setting [6]) it was 7316. In addition, in the test on some examined cell types, the “transfection expression and % cells transfected over the no peptide control” value is “increased transfection expression and the % cells transfected”.
